Experimental data reported in BindingDB's records for patent US20240002391 (Biosplice Therapeutics, 2024).

Molecular target: Dual specificity tyrosine-phosphorylation-regulated kinase 1A (Homo sapiens, UniProt Q13627)
Experiment: DYRK1A kinase assay
Protocol: The mixture was allowed to incubate with the representative compounds for one hour at room temperature. All reactions were performed in duplicate. Unphosphorylated ( 0% Control ) and phosphorylated ( 100% control ) forms of Ser/Thr 18 served as control reactions. Additionally, an 11-point dose-response curve of Staurosporine (luM top) was run to serve as a positive compound control. After incubation, Development Reagent A was diluted in Development Buffer then added to the reaction and allowed to further incubate for one hour at room temperature.

SMILES	EC50 [nM]
COc1nc(N[C@H]2C[C@@](C)(NC(=O)C3(C#N)CC3)C2)nn2ccc(-c3ccc4nnn(C)c4c3)c12 [US20240002391, Compound 625]	0.9
COc1nc(N[C@H]2CC[C@](C)(O)CC2)nn2cc(F)c(-c3ccc4nnn(C)c4c3)c12 [US20240002391, Compound 629]	2.4
Cn1nnc2ccc(-c3ccn4nc(N[C@H]5CC[C@](C)(O)CC5)nc(OC5COC5)c34)cc21 [US20240002391, Compound 631]	24.5
CCn1nnc2ccc(-c3ccn4nc(N[C@H]5CC[C@](C)(O)CC5)nc(OC)c34)cc21 [US20240002391, Compound 639]	1.3
COc1nc(N[C@H]2CC[C@@](C)(O)CC2)nn2ccc(-c3ccc4nnn(CCF)c4c3)c12 [US20240002391, Compound 658]	4.5
COc1nc(N[C@H]2CC[C@](C)(O)CC2)nn2ccc(-c3ccc4nnn(CCF)c4c3)c12 [US20240002391, Compound 659]	0.9
COc1nc(N[C@H]2C[C@]3(CCN3CC(F)F)C2)nn2ccc(-c3ccc4nccnc4c3)c12 [US20240002391, Compound 1099]	0.7

The remaining lines, values ahead:

EC50 [nM]	SMILES
1.3	COc1nc(N[C@H]2C[C@@](C)(O)C2)nn2ccc(-c3ccc4nccn4c3)c12 [US20240002391, Compound 43]
3.2	COc1nc(N[C@H]2C[C@](C)(O)C2)nn2ccc(-c3ccc4nccn4c3)c12 [US20240002391, Compound 44]
18.8	COc1nc(N[C@H]2C[C@@](C)(N)C2)nn2ccc(-c3ccc4ncnn4c3)c12 [US20240002391, Compound 189]
1.3	COc1nc(N[C@H]2C[C@@](C)(NC(C)=O)C2)nn2ccc(-c3ccc4nnn(CCF)c4c3)c12 [US20240002391, Compound 653]
